Results on 25 molecules are retold here after ChEMBL document CHEMBL1139190, “Pyrazolo[1,5-a]pyridine antiherpetics: effects of the C3 substituent on antiviral activity” (Bioorg Med Chem Lett, 2007).

Series [1] can be described thus: Cytotoxicity against Vero SC16 cells. The class given is cell-based. The settings on record: chlorocebus sabaeus.
The nature of series [2]: Therapeutic index, ratio of CC50 for Vero SC16 cells to EC50 for HSV1. Format: cell-based. The conditions noted are these: monkey, read-out: Ratio CC50/EC50.
For the next series, the system named is Human alphaherpesvirus 1. As to the kind of experiment: Antiviral activity against HSV1 in Vero SC16 cells by capture hybrid method. The class given is functional, organism-based. The conditions noted are these: Human alphaherpesvirus 1, Vero.

A value given as a limit tells only on which side of the number the result lay.

As usually defined, the CC50 is the concentration giving 50% cytotoxicity. One may read the EC50 as the concentration giving half of the maximal effect. The low end stands for higher potency in that assay, the high end for lower potency in that assay. `Fc1ccc(-c2nn3c(NC4CCCC4)cccc3c2-c2cc(NC3CCCC3)ncn2)cc1` showed a CC50 in series [1] above 40 µM. For the same molecule, the selectivity ratio in series [2] is above 46. Moreover, the half-maximal effective concentration (EC50) with Human alphaherpesvirus 1 was determined as 0.85 µM.

Regarding `Fc1ccc(-c2nn3c(NC4CCCC4)cccc3c2-c2ccsc2)cc1`, the concentration giving a half-maximal response (EC50) in the series on Human alphaherpesvirus 1 was above 10 µM.

As to `Fc1ccc(-c2nn3c(NC4CCCC4)cccc3c2-c2ccnc(F)c2)cc1`, in the series with Human alphaherpesvirus 1, the EC50 is above 40 µM.

The molecule `Fc1ccc(-c2nn3c(NC4CCCC4)cccc3c2-c2ccco2)cc1` returned an EC50 with Human alphaherpesvirus 1 above 10 µM.

As for `Fc1ccc(-c2nn3c(NC4CCCC4)cccc3c2-c2c[nH]c(NC3CCCC3)n2)cc1`, in series [1], it took 40 µM to reach half-maximal cytotoxicity (CC50). Besides, in series [2], the selectivity ratio amounted to 5. In the series with Human alphaherpesvirus 1, this molecule showed an EC50 of 7.9 µM.

In turn, `Cc1nc(-c2c(-c3ccc(F)cc3)nn3c(NC4CCCC4)cccc23)co1` yielded an EC50 with Human alphaherpesvirus 1 above 40 µM.

In series [1], `NNc1cc(-c2c(-c3ccc(F)cc3)nn3c(NC4CCCC4)cccc23)ccn1` came in with a CC50 of 40 µM. Also, the selectivity ratio in series [2] was 7. Also, the EC50 in the series on Human alphaherpesvirus 1 worked out at 5.7 µM.

The molecule `Fc1ccc(-c2nn3c(NC4CCCC4)cccc3c2-c2ccnc(NC3CCCC3)c2)cc1` registered a CC50 in series [1] above 40 µM. In addition, the selectivity ratio in series [2] was above 108. Moreover, the response in the series on Human alphaherpesvirus 1 was half-maximal at 0.37 µM (EC50).

For the molecule `Fc1ccc(-c2nn3c(NC4CCCC4)cccc3c2-c2ccno2)cc1`, the EC50 in the series on Human alphaherpesvirus 1 is above 10 µM.

With `Fc1ccc(-c2nn3c(NC4CCCC4)cccc3c2-c2ccc3[nH]ccc3c2)cc1`, the half-maximal cytotoxic concentration (CC50) in series [1] was found to be 20 µM. In series [2], the selectivity ratio was found to be 5. The half-maximal effective concentration (EC50) in the series on Human alphaherpesvirus 1 is 3.9 µM.

In the series on Human alphaherpesvirus 1, `Fc1ccc(-c2nn3c(NC4CCCC4)cccc3c2-c2ccc(NC3CCCC3)nc2)cc1` came in with a concentration for a half-maximal effect (EC50) above 40 µM.

In the case of `Fc1ccc(-c2nn3c(NC4CCCC4)cccc3c2-c2ccoc2)cc1`, the EC50 with Human alphaherpesvirus 1 was above 10 µM.

`[N-]=[N+]=Nc1cc(-c2c(-c3ccc(F)cc3)nn3c(NC4CCCC4)cccc23)ccn1`: the EC50 in the series on Human alphaherpesvirus 1 was above 40 µM.

In the series on Human alphaherpesvirus 1, `Fc1ccc(-c2nn3c(NC4CCCC4)cccc3c2-c2ccc(F)nc2)cc1` came in with an EC50 above 40 µM.

Molecule `Fc1ccc(-c2nn3c(NC4CCCC4)cccc3c2-c2cn[nH]c2)cc1` displayed a CC50 in series [1] of 10 µM. Moreover, in series [2], the selectivity ratio came out at 2. The molecule further returned an EC50 in the series on Human alphaherpesvirus 1 of 4.7 µM.

`Fc1ccc(-c2nn3c(NC4CCCC4)cccc3c2-c2cc[nH]n2)cc1` returned a CC50 in series [1] of 14 µM. Further, the selectivity ratio in series [2] amounted to 6. For the same molecule, in the series with Human alphaherpesvirus 1, the EC50 was found to be 2.5 µM.

In series [1], `Nc1nccc(-c2c(-c3ccc(F)cc3)nn3c(NC4CCCC4)cccc23)n1` had a CC50 of 46 µM. Also, in series [2], the selectivity ratio was 11. This molecule had an EC50 in the series with Human alphaherpesvirus 1 of 4.1 µM.

In the case of `Fc1ccc(-c2nn3c(NC4CCCC4)cccc3c2-c2ccnnc2)cc1`, in the series with Human alphaherpesvirus 1, the EC50 was above 10 µM.

Molecule `Nc1nc(-c2c(-c3ccc(F)cc3)nn3c(NC4CCCC4)cccc23)c[nH]1` displayed an EC50 in the series on Human alphaherpesvirus 1 above 10 µM.

The molecule `Fc1ccc(-c2nn3c(NC4CCCC4)cccc3c2-c2ccnc(NC3CCCC3)n2)cc1` displayed a CC50 in series [1] above 160 µM. In addition, the selectivity ratio in series [2] is above 615. The molecule further displayed an EC50 in the series with Human alphaherpesvirus 1 of 0.26 µM.

The molecule `Fc1ccc(-c2nn3c(NC4CCCC4)cccc3c2-c2cccnc2)cc1` registered a CC50 in series [1] above 40 µM. For the same molecule, in series [2], the selectivity ratio was above 11. Besides, in the series with Human alphaherpesvirus 1, the EC50 was determined as 3.4 µM.

`Nc1cccc(-c2c(-c3ccc(F)cc3)nn3c(NC4CCCC4)cccc23)c1` yielded a concentration for a half-maximal effect (EC50) in the series on Human alphaherpesvirus 1 above 10 µM.

In the case of `Fc1ccc(-c2nn3c(NC4CCCC4)cccc3c2-c2cccnc2NC2CCCC2)cc1`, the EC50 in the series with Human alphaherpesvirus 1 was above 40 µM.

On to `Nc1n[nH]cc1-c1c(-c2ccc(F)cc2)nn2c(NC3CCCC3)cccc12`, for which the cytotoxic concentration (CC50) in series [1] came to 20 µM. For the same molecule, the selectivity ratio in series [2] stood at 4. In addition, the response with Human alphaherpesvirus 1 was half-maximal at 4.9 µM (EC50).

As to `Nc1nc(-c2c(-c3ccc(F)cc3)nn3c(NC4CCCC4)cccc23)cs1`, the EC50 in the series with Human alphaherpesvirus 1 came out at 8.6 µM.
